From ChEMBL document CHEMBL3769391, “Identification of a new cyathane diterpene that induces mitochondrial and autophagy-dependent apoptosis and shows a potent in vivo anti-colorectal cancer activity” (Eur J Med Chem, 2016)
The source made the active and inactive calls. No cut-off for these calls is given here.

Columns and labels:
[1] = tested on: HCT-116; assay: Induction of apoptosis in Bax deficient human HCT116 cells assessed as late apoptotic cells at 15 uM after 24 hrs by Annexin V-FITC/propidium iodide staining based flow cytometry (reference value: 1.5 to 1.56%); assay type: functional
[2] = tested on: HCT-116; assay: Induction of apoptosis in human HCT116 cells assessed as cytochrome C release from mitochondria to cytoplasm at 5 uM after 12 hrs by immunofluorescence assay; assay type: functional
[3] = tested on: Mus musculus; assay: Hepatotoxicity in immune deficient nude BALB/c mouse xenografted with Bax deficient human HCT116 cells assessed as changes in alanine transaminase level in serum at 5 and 10 mg/kg, ip administered every other day for 2 weeks measured during compound dosing; assay type: toxicity, organism-based, HCT-116; details: in vivo, 336 h
[4] = tested on: HCT-116; assay: Induction of apoptosis in human HCT116 cells assessed as early apoptotic cells at 2.5 uM after 24 hrs by Annexin V-FITC/propidium iodide staining based flow cytometry (reference value: 1.06%); assay type: functional
[5] = tested on: HCT-116; assay: Induction of apoptosis in human HCT116 cells assessed as early apoptotic cells at 5 uM after 24 hrs by Annexin V-FITC/propidium iodide staining based flow cytometry (reference value: 1.06 to 2.2%); assay type: functional
[6] = tested on: HCT-116; assay: Induction of apoptosis in human HCT116 cells assessed as late apoptotic cells at 5 uM after 24 hrs by Annexin V-FITC/propidium iodide staining based flow cytometry (reference value: 3.73 to 4.54%); assay type: functional
[7] = tested on: HCT-116; assay: Induction of apoptosis in human HCT116 cells assessed as early apoptotic cells at 10 uM after 24 hrs by Annexin V-FITC/propidium iodide staining based flow cytometry (reference value: 1.06%); assay type: functional
[8] = tested on: HCT-116; assay: Induction of apoptosis in human HCT116 cells assessed as late apoptotic cells at 10 uM after 24 hrs by Annexin V-FITC/propidium iodide staining based flow cytometry (reference value: 4.54%); assay type: functional
[9] = tested on: HCT-116; assay: Induction of apoptosis in human HCT116 cells assessed as late apoptotic cells at 10 uM after 12 hrs by Annexin V-FITC/propidium iodide staining based flow cytometry (reference value: 3.37%); assay type: functional
[10] = tested on: HCT-116; assay: Induction of apoptosis in human HCT116 cells assessed as caspase activation at 5 uM after 24 hrs by CaspACEFITC-VAD-FMK staining based flow cytometry (reference value: 7.72%); assay type: functional
[11] = tested on: HCT-116; assay: Induction of apoptosis in human HCT116 cells assessed as caspase activation at 5 uM after 36 hrs by CaspACEFITC-VAD-FMK staining based flow cytometry (reference value: 7.72%); assay type: functional
[12] = tested on: HCT-116; assay: Induction of apoptosis in human HCT116 cells assessed as PARP cleavage at 5 uM after 6 to 24 hrs by Western blot analysis; assay type: functional, cell-based
[13] = tested on: HCT-116; assay: Induction of apoptosis in human HCT116 cells assessed as viable cells at 5 uM after 24 hrs by Annexin V-FITC/propidium iodide staining based flow cytometry in presence of DTT (reference value: 93.64%); assay type: functional; details: HCT-116, 24 h, read-out: Activity
[14] = tested on: HCT-116; assay: Induction of apoptosis in human HCT116 cells assessed as early apoptotic cells at 5 uM after 24 hrs by Annexin V-FITC/propidium iodide staining based flow cytometry in presence of NAC (reference value: 2.2%); assay type: functional
[15] = tested on: HCT-116; assay: Induction of apoptosis in human HCT116 cells assessed as late apoptotic cells at 5 uM after 24 hrs by Annexin V-FITC/propidium iodide staining based flow cytometry in presence of NAC (reference value: 3.73%); assay type: functional
[16] = tested on: HCT-116; assay: Induction of apoptosis in human HCT116 cells assessed as late apoptotic cells at 5 uM after 24 hrs by Annexin V-FITC/propidium iodide staining based flow cytometry in presence of DTT (reference value: 3.73%); assay type: functional
[17] = tested on: HCT-116; assay: Induction of apoptosis in human HCT116 cells assessed as necrotic cells at 5 uM after 24 hrs by Annexin V-FITC/propidium iodide staining based flow cytometry in presence of DTT (reference value: 0.44%); assay type: functional
[18] = molecular target: c-Jun N-terminal kinase, JNK (Homo sapiens) (UniProt P45983+P53779+P45984); assay: Induction of JNK phosphorylation in human HCT116 cells at 5 uM after 4 hrs by Western blot analysis; assay type: cell-based; details: HCT-116
[19] = tested on: HCT-116; assay: Induction of apoptosis in human HCT116 cells assessed as increase in BimL expression at 5 uM after 6 to 24 hrs by Western blot analysis; assay type: functional, cell-based
[20] = tested on: HCT-116; assay: Induction of apoptosis in Bax deficient human HCT116 cells assessed as early apoptotic cells at 5 uM after 24 hrs by Annexin V-FITC/propidium iodide staining based flow cytometry (reference value: 1.13%); assay type: functional
[21] = tested on: HCT-116; assay: Induction of apoptosis in Bax deficient human HCT116 cells assessed as late apoptotic cells at 10 uM after 24 hrs by Annexin V-FITC/propidium iodide staining based flow cytometry (reference value: 1.5%); assay type: functional
[22] = tested on: HCT-116; assay: Induction of apoptosis in Bax deficient human HCT116 cells assessed as early apoptotic cells at 15 uM after 24 hrs by Annexin V-FITC/propidium iodide staining based flow cytometry in presence of DTT (reference value: 0.85%); assay type: functional
[23] = tested on: HCT-116; assay: Induction of apoptosis in Bax deficient human HCT116 cells assessed as late apoptotic cells at 15 uM after 24 hrs by Annexin V-FITC/propidium iodide staining based flow cytometry in presence of DTT (reference value: 1.56%); assay type: functional
[24] = tested on: HCT-116; assay: Induction of apoptosis in human HCT116 cells assessed as changes in Beclin-1 expression at 5 uM after 4 to 12 hrs by Western blot analysis; assay type: functional, cell-based
[25] = tested on: HCT-116; assay: Induction of apoptosis in human HCT116 cells assessed as increase in ATG5 expression at 5 uM after 4 to 12 hrs by Western blot analysis; assay type: functional, cell-based
[26] = tested on: HCT-116; assay: Induction of apoptosis in human HCT116 cells assessed as ATG5 cleavage by Western blot analysis in presence of Z-VAD-FMK; assay type: functional, cell-based
[27] = Antitumor activity against human HCT116 cells xenografted in immune deficient nude BALB/c mouse assessed as tumor growth inhibition at 10 mg/kg, ip administered every other day for 2 weeks measured after 2 weeks post last dose relative to control; assay type: functional; details: HCT-116, ip, 336 h, read-out: TGI
[28] = tested on: Mus musculus; assay: Toxicity in immune deficient nude BALB/c mouse xenografted with Bax deficient human HCT116 cells assessed as changes in body weight at 5 and 10 mg/kg, ip administered every other day for 2 weeks measured during compound dosing; assay type: organism-based, HCT-116; details: in vivo, 336 h
[29] = tested on: Mus musculus; assay: Hepatotoxicity in immune deficient nude BALB/c mouse xenografted with human HCT116 cells assessed as changes in total protein level in serum at 5 and 10 mg/kg, ip administered every other day for 2 weeks measured during compound dosing; assay type: toxicity, organism-based, HCT-116; details: in vivo, 336 h
[30] = tested on: Mus musculus; assay: Hepatotoxicity in immune deficient nude BALB/c mouse xenografted with Bax deficient human HCT116 cells assessed as changes in albumin level in serum at 5 and 10 mg/kg, ip administered every other day for 2 weeks measured during compound dosing; assay type: toxicity, organism-based, HCT-116; details: in vivo, 336 h
[31] = tested on: Mus musculus; assay: Hepatotoxicity in immune deficient nude BALB/c mouse xenografted with human HCT116 cells assessed as changes in alanine transaminase level in serum at 5 and 10 mg/kg, ip administered every other day for 2 weeks measured during compound dosing; assay type: toxicity, organism-based, HCT-116; details: in vivo, 336 h

CO[C@@H]1C(C=O)=CC[C@@H]2C3=C(C(C)C)CC[C@]3(C)CC[C@@]2(C)[C@H]1O
Activity [1]: 29.02% | Activity [2]: Active | Activity [3]: Non-toxic | Activity [4]: 2.23% | Activity [5]: 24.72% | Activity [6]: 13.06% | Activity [7]: 59.5% | Activity [8]: 22.57% | Activity [9]: 22.01% | Activity [10]: 70.08% | Activity [11]: 93.96% | Activity [12]: Active | viability at 5 µM [13]: 80.8% | Activity [14]: 1.35% | Activity [15]: 6.46% | Activity [16]: 13.34% | Activity [17]: 0.33% | Activity [18]: Active | Activity [19]: Active | Activity [20]: 6.35% | Activity [21]: 17.64% | Activity [22]: 2.67% | Activity [23]: 3.36% | Activity [24]: inactive | Activity [25]: Active | Activity [26]: inactive | inhibition in vivo at 10 mg/kg [27]: 62.2% | Activity [28]: Non-toxic | Activity [29]: Non-toxic | Activity [30]: Non-toxic | Activity [31]: Non-toxic
